Reference: publication PMC12155096 (International Journal of Molecular Sciences, 2025)
Read-outs that look alike come from different tables or passages of the source.

Experiments:
human CYP2C19 [1] = target: T1, human CYP2C19 (Homo sapiens, UniProt P33261)
human CYP1A2 [2] = target: T2, human CYP1A2 (Homo sapiens, UniProt P05177); experiment: biochemical
T2 sequence (P05177 1-516): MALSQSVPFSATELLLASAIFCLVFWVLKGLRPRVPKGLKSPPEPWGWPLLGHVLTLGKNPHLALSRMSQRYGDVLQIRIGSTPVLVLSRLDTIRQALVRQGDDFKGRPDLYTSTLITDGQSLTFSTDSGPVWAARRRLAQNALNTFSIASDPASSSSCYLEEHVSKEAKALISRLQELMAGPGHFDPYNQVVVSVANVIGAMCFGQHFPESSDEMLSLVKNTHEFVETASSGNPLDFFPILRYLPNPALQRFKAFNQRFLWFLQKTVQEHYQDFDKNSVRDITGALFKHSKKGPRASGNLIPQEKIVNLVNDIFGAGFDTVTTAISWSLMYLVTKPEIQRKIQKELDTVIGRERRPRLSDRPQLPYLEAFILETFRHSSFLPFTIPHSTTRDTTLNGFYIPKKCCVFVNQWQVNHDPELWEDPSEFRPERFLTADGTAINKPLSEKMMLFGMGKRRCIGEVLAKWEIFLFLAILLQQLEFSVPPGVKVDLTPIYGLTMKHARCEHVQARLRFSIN

CYP3A4 [3] = target: T3, CYP3A4 (Homo sapiens, UniProt P08684); experiment: biochemical
T3 sequence (P08684 whole entry): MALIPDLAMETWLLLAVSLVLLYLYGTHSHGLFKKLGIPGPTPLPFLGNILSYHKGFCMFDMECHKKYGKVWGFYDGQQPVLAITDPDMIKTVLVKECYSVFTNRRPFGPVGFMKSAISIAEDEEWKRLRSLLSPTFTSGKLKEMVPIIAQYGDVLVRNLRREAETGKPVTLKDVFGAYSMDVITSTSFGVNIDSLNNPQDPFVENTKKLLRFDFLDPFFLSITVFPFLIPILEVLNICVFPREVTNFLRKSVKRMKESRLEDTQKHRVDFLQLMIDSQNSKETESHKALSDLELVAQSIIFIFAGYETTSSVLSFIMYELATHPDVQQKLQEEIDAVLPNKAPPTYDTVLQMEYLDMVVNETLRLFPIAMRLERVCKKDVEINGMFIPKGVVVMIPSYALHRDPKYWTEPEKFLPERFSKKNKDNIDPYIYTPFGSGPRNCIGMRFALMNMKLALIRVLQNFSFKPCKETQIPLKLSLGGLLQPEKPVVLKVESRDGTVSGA

human CYP2C9 [4] = target: T4, human CYP2C9 (Homo sapiens, UniProt P11712); experiment: P450-Glo CYP2C9 inhibition qHTS
T4 sequence (P11712 whole entry): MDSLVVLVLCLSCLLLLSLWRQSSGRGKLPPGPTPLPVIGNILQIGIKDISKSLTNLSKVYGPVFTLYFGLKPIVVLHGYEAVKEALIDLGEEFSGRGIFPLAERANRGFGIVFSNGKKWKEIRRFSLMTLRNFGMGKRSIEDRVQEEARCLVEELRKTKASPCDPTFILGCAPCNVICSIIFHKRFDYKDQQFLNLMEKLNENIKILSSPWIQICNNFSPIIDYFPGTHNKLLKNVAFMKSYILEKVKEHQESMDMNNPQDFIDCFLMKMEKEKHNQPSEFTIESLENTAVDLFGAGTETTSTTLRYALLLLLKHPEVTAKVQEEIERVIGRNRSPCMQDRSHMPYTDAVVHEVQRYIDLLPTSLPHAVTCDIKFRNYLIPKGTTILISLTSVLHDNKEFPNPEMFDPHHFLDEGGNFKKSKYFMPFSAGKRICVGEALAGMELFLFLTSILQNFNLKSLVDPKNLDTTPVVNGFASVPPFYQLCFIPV

human CYP2D6 [5] = target: T5, human CYP2D6 (Homo sapiens, UniProt P10635); experiment: P450-Glo CYP2D6 inhibition qHTS
T5 sequence (P10635 whole entry): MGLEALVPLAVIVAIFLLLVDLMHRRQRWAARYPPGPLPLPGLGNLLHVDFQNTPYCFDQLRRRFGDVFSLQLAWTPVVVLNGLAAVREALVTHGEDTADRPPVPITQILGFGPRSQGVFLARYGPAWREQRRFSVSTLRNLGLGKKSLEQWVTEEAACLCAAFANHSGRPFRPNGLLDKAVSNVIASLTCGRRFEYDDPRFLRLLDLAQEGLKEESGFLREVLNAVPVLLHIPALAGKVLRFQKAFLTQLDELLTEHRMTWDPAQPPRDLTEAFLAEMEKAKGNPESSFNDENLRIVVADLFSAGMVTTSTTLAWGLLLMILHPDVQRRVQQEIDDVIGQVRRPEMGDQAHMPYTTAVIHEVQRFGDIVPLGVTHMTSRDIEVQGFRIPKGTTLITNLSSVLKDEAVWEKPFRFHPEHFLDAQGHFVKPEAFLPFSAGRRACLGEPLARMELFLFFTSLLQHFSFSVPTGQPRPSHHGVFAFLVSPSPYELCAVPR

[6] = target: Photinus pyralis (firefly) luciferase (Photinus pyralis, UniProt P08659); experiment: biochemical; assay type: biochemical
Sequence of Photinus pyralis (firefly) luciferase (P08659 whole entry): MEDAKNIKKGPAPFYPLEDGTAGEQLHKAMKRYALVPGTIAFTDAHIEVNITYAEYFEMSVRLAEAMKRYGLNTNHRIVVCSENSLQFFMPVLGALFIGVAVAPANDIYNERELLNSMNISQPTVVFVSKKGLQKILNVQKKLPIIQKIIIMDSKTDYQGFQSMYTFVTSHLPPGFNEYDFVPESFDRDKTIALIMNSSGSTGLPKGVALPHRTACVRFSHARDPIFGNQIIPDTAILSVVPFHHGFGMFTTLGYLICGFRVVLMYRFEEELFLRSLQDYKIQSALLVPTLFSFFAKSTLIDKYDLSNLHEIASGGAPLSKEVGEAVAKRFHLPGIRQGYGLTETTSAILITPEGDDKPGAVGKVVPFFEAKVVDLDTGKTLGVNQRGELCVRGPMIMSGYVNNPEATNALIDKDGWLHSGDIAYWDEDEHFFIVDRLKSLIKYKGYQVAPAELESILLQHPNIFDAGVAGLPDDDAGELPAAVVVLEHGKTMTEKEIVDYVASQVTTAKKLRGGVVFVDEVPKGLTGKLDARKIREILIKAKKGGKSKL

human CYP1A2 [7] = target: T2, human CYP1A2
CYP3A4 [8] = target: T3, CYP3A4
human CYP2C9 [9] = target: T4, human CYP2C9; experiment: biochemical
human CYP2C19 [10] = target: T1, human CYP2C19; experiment: biochemical
human CYP2D6 [11] = target: T5, human CYP2D6; experiment: biochemical
human CYP2C19 [12] = target: T1, human CYP2C19; experiment: P450-Glo CYP2C19 inhibition qHTS; settings: human
human CYP2C9 [13] = target: T4, human CYP2C9
CYP3A4 [14] = target: T3, CYP3A4; experiment: in vitro
[15] = in vivo; cited from earlier work

T1 sequence (P33261 whole entry): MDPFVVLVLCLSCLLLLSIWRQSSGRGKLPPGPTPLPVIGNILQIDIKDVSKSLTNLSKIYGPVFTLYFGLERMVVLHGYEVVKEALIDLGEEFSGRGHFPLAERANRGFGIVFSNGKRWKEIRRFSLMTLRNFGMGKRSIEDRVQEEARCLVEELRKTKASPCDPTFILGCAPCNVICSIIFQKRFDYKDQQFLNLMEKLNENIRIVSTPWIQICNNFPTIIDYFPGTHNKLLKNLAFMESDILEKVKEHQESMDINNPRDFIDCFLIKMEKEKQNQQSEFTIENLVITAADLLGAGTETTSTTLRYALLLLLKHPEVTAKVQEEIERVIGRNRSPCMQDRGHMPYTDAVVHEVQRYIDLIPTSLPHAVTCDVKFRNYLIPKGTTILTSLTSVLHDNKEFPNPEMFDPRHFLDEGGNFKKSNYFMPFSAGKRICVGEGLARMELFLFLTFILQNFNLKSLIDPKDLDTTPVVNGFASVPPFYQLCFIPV

CC(C)(c1ccccc1)c1ccccc1 [2,2-Diphenylpropane]
CYP2C19 AC50 (half-maximal activity concentration) (human CYP2C19 [1]): Inactive | AC50 (human CYP1A2 [2]): 58.8 µM | AC50 (CYP3A4 [3]): 34.4 ± 11.7 µM | CYP2C9 AC50 (half-maximal activity concentration) (human CYP2C9 [4]): Inconclusive inhibitor | CYP2D6 AC50 (half-maximal activity concentration) (human CYP2D6 [5]): Inconclusive inhibitor

CSC(=O)c1cccc2nnsc12 [Acibenzolar-S-methyl]
Luciferase IC50 (half-maximal inhibitory concentration) [6]: Inactive | CYP1A2 Efficacy (in parenthesis) (human CYP1A2 [7]; mean ± standard deviation from three experiments, negative = inhibition): 0.77 ± 0.11 (-94 ± 7) % | CYP3A4 IC50 (half-maximal inhibitory concentration) (CYP3A4 [8]): Inactive | IC50 (human CYP1A2 [2]): 0.77 µM | IC50 (human CYP2C9 [9]): 8.65 µM | IC50 (human CYP2C19 [10]): 13.2 µM | IC50 (human CYP2D6 [11]): 34.3 µM | CYP2C9 Efficacy (in parenthesis) (human CYP2C9 [4]; human): 8.65 ± 1.19 (-93 ± 9) % | CYP2D6 Efficacy (in parenthesis) (human CYP2D6 [5]; human): 34.28 ± 2.23 (-79 ± 6) % | CYP2C19 Efficacy (in parenthesis) (human CYP2C19 [12]): 13.25 ± 2.38 (-133 ± 9) %

C=CCN1C[C@H](C(=O)N(CCCN(C)C)C(=O)NCC)C[C@@H]2c3cccc4[nH]cc(c34)C[C@H]21 [Cabergoline]
Luciferase IC50 [6]: Inactive | CYP1A2 IC50 (human CYP1A2 [7]): Inactive | CYP2C9 IC50 (human CYP2C9 [13]): Inactive | CYP2C19 IC50 (human CYP2C19 [1]): Inactive | IC50 (CYP3A4 [14]): 1.02 µM | IC50 (human CYP2D6 [11]; CYP2D6 IC50): 1.47 µM

COC(=O)[C@@H]1[C@H]2C[C@H]3c4[nH]c5ccccc5c4CCN3C[C@@H]2CC[C@@H]1O [Yohimbine, reference compound]
Luciferase IC50 (half-maximal inhibitory concentration) [6]: Inactive | Cmax (maximum plasma concentration) [15]: 75 ng/mL
